Data set [1] concerns the target T1, Amine oxidase [flavin-containing] B (Rattus norvegicus, UniProt P19643).
T1 sequence (P19643 whole entry): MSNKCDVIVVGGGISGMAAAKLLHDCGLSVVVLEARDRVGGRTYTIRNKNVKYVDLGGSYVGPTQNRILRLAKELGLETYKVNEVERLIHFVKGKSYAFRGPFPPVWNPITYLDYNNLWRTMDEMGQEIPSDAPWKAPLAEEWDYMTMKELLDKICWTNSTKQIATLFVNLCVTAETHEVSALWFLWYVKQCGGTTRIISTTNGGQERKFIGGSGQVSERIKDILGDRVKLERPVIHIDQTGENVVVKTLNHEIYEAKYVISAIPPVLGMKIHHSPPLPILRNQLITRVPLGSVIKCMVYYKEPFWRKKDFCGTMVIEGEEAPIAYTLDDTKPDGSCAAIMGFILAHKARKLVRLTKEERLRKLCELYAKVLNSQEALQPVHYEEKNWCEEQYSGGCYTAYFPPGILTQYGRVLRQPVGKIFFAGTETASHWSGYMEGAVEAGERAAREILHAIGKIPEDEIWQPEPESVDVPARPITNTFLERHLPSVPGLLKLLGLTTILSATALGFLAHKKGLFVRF
In words: Inhibition of rat MAO-B from mitochondria-enriched rat liver fractions using p-tyraimne substrate.

The target in data set [2] is T2, Amine oxidase [flavin-containing] A (Homo sapiens, UniProt P21397).
T2 sequence (P21397 whole entry): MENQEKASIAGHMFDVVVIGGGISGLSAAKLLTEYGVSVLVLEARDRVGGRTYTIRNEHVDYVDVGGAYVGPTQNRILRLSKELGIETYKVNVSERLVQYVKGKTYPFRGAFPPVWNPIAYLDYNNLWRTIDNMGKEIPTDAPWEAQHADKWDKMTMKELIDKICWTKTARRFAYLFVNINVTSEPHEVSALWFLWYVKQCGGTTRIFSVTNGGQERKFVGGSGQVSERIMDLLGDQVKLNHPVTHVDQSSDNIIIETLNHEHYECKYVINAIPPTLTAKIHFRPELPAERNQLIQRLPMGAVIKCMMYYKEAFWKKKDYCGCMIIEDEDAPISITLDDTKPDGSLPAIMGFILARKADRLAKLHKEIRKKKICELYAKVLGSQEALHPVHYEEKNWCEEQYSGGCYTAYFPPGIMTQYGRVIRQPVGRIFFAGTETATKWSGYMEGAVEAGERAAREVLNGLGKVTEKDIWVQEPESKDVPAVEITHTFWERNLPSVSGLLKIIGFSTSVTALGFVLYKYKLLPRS
In words: Inhibition of human recombinant MAO-A expressed in baculovirus-infected insect cells using p-tyraimne substrate. The note with it: read-out: IC50.

For data set [3], the target named is T3, Amine oxidase [flavin-containing] A (Rattus norvegicus, UniProt P21396).
T3 sequence (P21396 whole entry): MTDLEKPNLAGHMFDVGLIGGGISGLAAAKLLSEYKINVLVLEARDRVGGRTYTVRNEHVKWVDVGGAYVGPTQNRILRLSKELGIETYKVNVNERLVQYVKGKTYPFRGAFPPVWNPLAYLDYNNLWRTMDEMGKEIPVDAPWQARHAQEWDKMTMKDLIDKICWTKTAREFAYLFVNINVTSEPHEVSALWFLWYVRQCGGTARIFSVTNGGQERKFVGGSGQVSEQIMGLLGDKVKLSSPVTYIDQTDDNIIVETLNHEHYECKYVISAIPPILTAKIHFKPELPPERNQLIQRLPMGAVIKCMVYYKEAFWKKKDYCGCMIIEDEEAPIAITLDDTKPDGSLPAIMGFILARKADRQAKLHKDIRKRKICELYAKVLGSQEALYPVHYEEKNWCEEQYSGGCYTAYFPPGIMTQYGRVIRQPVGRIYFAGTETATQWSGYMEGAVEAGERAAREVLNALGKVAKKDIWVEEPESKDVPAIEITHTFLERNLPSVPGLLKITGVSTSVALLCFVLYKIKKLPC
Nature of the data set: Inhibition of rat MAO-A from mitochondria-enriched rat liver fractions using p-tyraimne substrate.

Another data set is filed under the species Homo sapiens. In words: Selectivity index, ratio of IC50 for human recombinant MAO-A to IC50 for human recombinant MAO-B.
Data set [4] addresses T4, Amine oxidase [flavin-containing] B (Homo sapiens, UniProt P27338).
T4 sequence (P27338 whole entry): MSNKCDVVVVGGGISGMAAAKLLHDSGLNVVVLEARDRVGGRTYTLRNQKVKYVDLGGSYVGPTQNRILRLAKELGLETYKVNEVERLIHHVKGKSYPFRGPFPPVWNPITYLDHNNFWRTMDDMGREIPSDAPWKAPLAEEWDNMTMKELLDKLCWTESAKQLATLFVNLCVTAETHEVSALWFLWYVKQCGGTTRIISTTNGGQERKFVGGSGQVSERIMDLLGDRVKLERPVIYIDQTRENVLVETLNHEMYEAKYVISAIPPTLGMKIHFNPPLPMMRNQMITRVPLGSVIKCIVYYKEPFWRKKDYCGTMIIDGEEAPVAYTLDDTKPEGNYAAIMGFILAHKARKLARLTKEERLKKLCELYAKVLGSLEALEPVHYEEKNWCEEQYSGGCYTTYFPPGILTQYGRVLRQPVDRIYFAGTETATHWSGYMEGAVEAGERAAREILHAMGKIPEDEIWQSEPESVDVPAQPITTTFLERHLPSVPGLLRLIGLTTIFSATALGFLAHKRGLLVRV
In words: Reversible inhibition of human recombinant MAO-B expressed in baculovirus-infected insect cells using p-tyraimne substrate at 1 nM for 22 mins. The note with it: 0.001 µM.

Data set [5] has as its target T3, Amine oxidase [flavin-containing] A. In words: Inhibition of rat MAO-A in rat-liver mitochondrial-fraction using [14C]-5-HT substrate.
The target of data set [6] is T1, Amine oxidase [flavin-containing] B. Nature of the data set: Inhibition of rat MAO-B in rat-liver mitochondrial-fraction using [14C]-PEA substrate.

As to `O=C(Nc1ccc(Cl)c(Cl)c1)c1ccc2[nH]ncc2c1`, the IC50 – broadly, the concentration at which inhibition is half-maximal – was 1.43 nM in data set [1], no less than 10000 nM in data set [2] and greater than 10000 nM in data set [3]. Moreover, in the data set listed under Homo sapiens, the Ratio IC50 came out at 17100. For the same molecule, the “inhibition (INH)” value in data set [4] is given as “Active”.
Consider `C#CCNCc1cc2cc(OCc3ccccc3)ccc2[nH]1`, for which the IC50 in data set [5] came to 22 nM; in data set [6], 1250 nM.

For the origin of these results see ChEMBL document CHEMBL3352205, “Indazole- and indole-5-carboxamides: selective and reversible monoamine oxidase B inhibitors with subnanomolar potency” (J Med Chem, 2014).
